Laboratory results: ChEMBL document CHEMBL4804286, “3-amino-4-(4-(4 (dimethylcarbamoyl) phenyl)-1,4-diazepan-1-yl) thieno [2,3-b] pyridine-2-carboxamide for use in cancer therapy and formulations comprising the same” (2020)
“And” between values parts separate entries of the source, which are not always exact repeats. Equal entries are not always repeated. The source made the active and inactive calls. The calls are words filed in the database; no cut-off is given here.

Experiments:
[1] = biological target: Tyrosine-protein kinase ABL1 (Homo sapiens) (UniProt P00519); assay: Inhibition of non-phosphorylated human ABL1 assessed as percent of control at 2000 nM by KINOMEscan assay relative to control; set-up: scale not given: the % may be the effect or the level left
[2] = biological target: Activin receptor type-1 (Homo sapiens) (UniProt Q04771); assay: Inhibition of human ACVR1 assessed as percent of control at 2000 nM by KINOMEscan assay relative to control; set-up: scale not given: the % may be the effect or the level left
Activin receptor type-1 (Homo sapiens), sequence (Q04771 whole entry): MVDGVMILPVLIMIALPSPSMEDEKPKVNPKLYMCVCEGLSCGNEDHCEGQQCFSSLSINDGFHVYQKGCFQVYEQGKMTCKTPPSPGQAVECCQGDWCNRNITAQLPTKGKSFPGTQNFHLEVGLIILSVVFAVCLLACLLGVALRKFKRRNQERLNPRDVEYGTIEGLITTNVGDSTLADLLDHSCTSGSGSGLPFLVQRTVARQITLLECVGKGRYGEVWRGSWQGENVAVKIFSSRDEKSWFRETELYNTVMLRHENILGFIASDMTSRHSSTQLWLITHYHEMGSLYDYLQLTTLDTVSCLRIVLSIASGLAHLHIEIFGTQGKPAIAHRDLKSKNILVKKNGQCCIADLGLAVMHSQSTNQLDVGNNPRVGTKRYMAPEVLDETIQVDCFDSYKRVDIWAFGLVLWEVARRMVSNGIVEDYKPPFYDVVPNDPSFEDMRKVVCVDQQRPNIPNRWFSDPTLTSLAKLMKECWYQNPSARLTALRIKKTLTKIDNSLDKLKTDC

[3] = biological target: Calcium/calmodulin-dependent protein kinase type II subunit beta (Homo sapiens) (UniProt Q13554); assay: Inhibition of human CAMK2B assessed as percent of control at 2000 nM by KINOMEscan assay relative to control; set-up: scale not given: the % may be the effect or the level left
[4] = biological target: Dual specificity protein kinase CLK3 (Homo sapiens) (UniProt P49761); assay: Inhibition of human CLK3 assessed as percent of control at 2000 nM by KINOMEscan assay relative to control; set-up: scale not given: the % may be the effect or the level left
[5] = test system: Epidermal growth factor receptor (Homo sapiens), P00533 [G719S]; assay: Inhibition of human EGFR G719S assessed as percent of control at 2000 nM by KINOMEscan assay relative to control; set-up: scale not given: the % may be the effect or the level left
[6] = biological target: Ephrin type-B receptor 1 (Homo sapiens) (UniProt P54762); assay: Inhibition of human EPHB1 assessed as percent of control at 2000 nM by KINOMEscan assay relative to control; set-up: scale not given: the % may be the effect or the level left
Ephrin type-B receptor 1 (Homo sapiens), sequence (P54762 whole entry): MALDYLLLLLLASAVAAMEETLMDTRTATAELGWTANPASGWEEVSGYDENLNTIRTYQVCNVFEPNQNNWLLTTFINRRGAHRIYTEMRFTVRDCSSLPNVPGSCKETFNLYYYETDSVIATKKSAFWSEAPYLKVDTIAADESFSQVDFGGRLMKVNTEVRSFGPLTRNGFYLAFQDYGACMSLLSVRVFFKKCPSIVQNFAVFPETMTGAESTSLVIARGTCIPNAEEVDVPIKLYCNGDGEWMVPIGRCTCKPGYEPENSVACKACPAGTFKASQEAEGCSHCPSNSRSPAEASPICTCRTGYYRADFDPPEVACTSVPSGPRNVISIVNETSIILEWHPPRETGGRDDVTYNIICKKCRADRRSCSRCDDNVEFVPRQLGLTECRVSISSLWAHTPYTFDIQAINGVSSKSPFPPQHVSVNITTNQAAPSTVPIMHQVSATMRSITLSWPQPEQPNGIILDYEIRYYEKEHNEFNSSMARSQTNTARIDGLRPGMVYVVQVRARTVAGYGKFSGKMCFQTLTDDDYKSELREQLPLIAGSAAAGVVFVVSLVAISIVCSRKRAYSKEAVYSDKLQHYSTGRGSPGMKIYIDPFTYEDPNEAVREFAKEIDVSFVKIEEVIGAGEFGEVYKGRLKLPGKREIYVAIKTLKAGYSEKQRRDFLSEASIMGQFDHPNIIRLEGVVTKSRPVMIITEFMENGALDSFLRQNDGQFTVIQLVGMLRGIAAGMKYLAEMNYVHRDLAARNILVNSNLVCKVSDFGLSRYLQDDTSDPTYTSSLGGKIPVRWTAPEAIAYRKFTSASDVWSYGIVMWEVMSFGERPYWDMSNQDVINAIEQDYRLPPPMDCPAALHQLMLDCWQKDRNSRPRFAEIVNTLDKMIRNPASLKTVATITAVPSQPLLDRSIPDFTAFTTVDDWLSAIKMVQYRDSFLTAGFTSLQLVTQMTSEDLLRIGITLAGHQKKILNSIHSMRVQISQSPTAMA

[7] = biological target: Ephrin type-B receptor 4 (Homo sapiens) (UniProt P54760); assay: Inhibition of human EPHB4 assessed as percent of control at 2000 nM by KINOMEscan assay relative to control; set-up: scale not given: the % may be the effect or the level left
[8] = biological target: Tyrosine-protein kinase Fyn (Homo sapiens) (UniProt P06241); assay: Inhibition of human FYN assessed as percent of control at 2000 nM by KINOMEscan assay relative to control; set-up: scale not given: the % may be the effect or the level left
[9] = biological target: Homeodomain-interacting protein kinase 2 (Homo sapiens) (UniProt Q9H2X6); assay: Inhibition of human HIPK2 assessed as percent of control at 2000 nM by KINOMEscan assay relative to control; set-up: scale not given: the % may be the effect or the level left
[10] = biological target: Tyrosine-protein kinase JAK1 (Homo sapiens) (UniProt P23458); assay: Inhibition of human JAK1 JH1 catalytic domain assessed as percent of control at 2000 nM by KINOMEscan assay relative to control; set-up: scale not given: the % may be the effect or the level left
[11] = biological target: Mitogen-activated protein kinase 10 (Homo sapiens) (UniProt P53779); assay: Inhibition of human JNK3 assessed as percent of control at 2000 nM by KINOMEscan assay relative to control; set-up: scale not given: the % may be the effect or the level left
Mitogen-activated protein kinase 10 (Homo sapiens), sequence (P53779 whole entry): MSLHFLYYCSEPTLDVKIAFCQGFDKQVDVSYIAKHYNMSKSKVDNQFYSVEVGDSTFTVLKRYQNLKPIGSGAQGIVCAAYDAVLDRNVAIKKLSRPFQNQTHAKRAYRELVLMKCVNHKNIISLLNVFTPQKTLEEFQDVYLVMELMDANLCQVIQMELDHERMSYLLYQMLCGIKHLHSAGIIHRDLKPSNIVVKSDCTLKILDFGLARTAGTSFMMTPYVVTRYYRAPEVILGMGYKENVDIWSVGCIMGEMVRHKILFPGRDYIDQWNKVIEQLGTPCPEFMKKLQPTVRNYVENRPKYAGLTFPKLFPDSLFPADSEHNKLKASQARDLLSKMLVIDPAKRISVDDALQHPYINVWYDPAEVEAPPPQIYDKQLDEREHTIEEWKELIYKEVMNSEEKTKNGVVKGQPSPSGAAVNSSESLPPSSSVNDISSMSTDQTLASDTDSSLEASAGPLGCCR

[12] = biological target: Mast/stem cell growth factor receptor Kit (Homo sapiens) (UniProt P10721); assay: Inhibition of human KIT assessed as percent of control at 2000 nM by KINOMEscan assay relative to control; set-up: scale not given: the % may be the effect or the level left
Mast/stem cell growth factor receptor Kit (Homo sapiens), sequence (P10721 whole entry): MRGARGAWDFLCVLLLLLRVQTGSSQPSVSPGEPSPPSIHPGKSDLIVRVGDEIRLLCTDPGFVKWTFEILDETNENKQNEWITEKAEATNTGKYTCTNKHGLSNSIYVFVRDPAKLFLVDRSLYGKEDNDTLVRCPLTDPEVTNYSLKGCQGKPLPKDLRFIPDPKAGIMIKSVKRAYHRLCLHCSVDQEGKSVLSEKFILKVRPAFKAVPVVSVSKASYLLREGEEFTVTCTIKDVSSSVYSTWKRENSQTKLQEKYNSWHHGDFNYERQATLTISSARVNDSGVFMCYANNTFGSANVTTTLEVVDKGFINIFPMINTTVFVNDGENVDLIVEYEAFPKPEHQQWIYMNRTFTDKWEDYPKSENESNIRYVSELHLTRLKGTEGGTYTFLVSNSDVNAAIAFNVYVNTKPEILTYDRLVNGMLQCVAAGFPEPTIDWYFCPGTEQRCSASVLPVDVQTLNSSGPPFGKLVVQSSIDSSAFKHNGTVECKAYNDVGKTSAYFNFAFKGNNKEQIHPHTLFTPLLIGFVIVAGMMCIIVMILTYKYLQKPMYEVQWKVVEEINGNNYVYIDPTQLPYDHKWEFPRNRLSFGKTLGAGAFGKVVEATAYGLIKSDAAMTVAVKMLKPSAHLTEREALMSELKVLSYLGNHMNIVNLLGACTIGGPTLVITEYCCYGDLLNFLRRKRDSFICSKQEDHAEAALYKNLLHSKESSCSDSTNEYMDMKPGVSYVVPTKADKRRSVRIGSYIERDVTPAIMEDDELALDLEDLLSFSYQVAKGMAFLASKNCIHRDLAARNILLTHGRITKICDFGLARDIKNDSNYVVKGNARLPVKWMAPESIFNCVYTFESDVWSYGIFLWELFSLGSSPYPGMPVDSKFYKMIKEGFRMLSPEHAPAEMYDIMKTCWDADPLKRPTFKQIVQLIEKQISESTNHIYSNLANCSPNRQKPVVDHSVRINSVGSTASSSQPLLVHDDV

[13] = biological target: Serine/threonine-protein kinase MAK (Homo sapiens) (UniProt P20794); assay: Inhibition of human MAK assessed as percent of control at 2000 nM by KINOMEscan assay relative to control; set-up: scale not given: the % may be the effect or the level left
[14] = biological target: Mitogen-activated protein kinase kinase kinase 1 (Homo sapiens) (UniProt Q13233); assay: Inhibition of human MAP3K1 assessed as percent of control at 2000 nM by KINOMEscan assay relative to control; set-up: scale not given: the % may be the effect or the level left
[15] = biological target: Mitogen-activated protein kinase kinase kinase kinase 2 (Homo sapiens) (UniProt Q12851); assay: Inhibition of human MAP4K2 assessed as percent of control at 2000 nM by KINOMEscan assay relative to control; set-up: scale not given: the % may be the effect or the level left
[16] = biological target: MAP/microtubule affinity-regulating kinase 3 (Homo sapiens) (UniProt P27448); assay: Inhibition of human MARK3 assessed as percent of control at 2000 nM by KINOMEscan assay relative to control; set-up: scale not given: the % may be the effect or the level left
[17] = biological target: Dual specificity mitogen-activated protein kinase kinase 3 (Homo sapiens) (UniProt P46734); assay: Inhibition of human MEK3 assessed as percent of control at 2000 nM by KINOMEscan assay relative to control; set-up: scale not given: the % may be the effect or the level left
[18] = test system: Hepatocyte growth factor receptor (Homo sapiens), P08581 [M1250T]; assay: Inhibition of human MET M1250T mutant assessed as percent of control at 2000 nM by KINOMEscan assay relative to control; set-up: scale not given: the % may be the effect or the level left
[19] = biological target: Myosin light chain kinase 2, skeletal/cardiac muscle (Homo sapiens) (UniProt Q9H1R3); assay: Inhibition of human MYLK2 assessed as percent of control at 2000 nM by KINOMEscan assay relative to control; set-up: scale not given: the % may be the effect or the level left
Myosin light chain kinase 2, skeletal/cardiac muscle (Homo sapiens), sequence (Q9H1R3 whole entry): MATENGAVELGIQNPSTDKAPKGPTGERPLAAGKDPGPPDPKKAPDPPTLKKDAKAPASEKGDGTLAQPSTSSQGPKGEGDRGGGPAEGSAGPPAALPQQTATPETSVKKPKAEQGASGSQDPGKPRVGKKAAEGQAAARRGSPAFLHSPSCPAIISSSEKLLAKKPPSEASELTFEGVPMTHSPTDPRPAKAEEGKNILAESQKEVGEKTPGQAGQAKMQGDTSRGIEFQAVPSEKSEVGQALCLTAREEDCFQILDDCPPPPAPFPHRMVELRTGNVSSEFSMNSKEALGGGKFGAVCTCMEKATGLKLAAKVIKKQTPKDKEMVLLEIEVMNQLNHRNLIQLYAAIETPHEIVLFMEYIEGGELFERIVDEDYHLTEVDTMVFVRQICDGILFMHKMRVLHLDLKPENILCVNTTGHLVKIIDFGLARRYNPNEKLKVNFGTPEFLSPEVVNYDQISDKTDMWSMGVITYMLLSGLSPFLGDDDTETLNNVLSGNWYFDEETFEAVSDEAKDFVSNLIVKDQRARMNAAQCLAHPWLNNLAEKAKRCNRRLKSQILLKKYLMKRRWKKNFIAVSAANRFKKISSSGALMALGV

[20] = biological target: Serine/threonine-protein kinase Nek4 (Homo sapiens) (UniProt P51957); assay: Inhibition of human NEK4 assessed as percent of control at 2000 nM by KINOMEscan assay relative to control; set-up: scale not given: the % may be the effect or the level left
[21] = biological target: Serine/threonine-protein kinase PAK 6 (Homo sapiens) (UniProt Q9NQU5); assay: Inhibition of human PAK6 assessed as percent of control at 2000 nM by KINOMEscan assay relative to control; set-up: scale not given: the % may be the effect or the level left
Serine/threonine-protein kinase PAK 6 (Homo sapiens), sequence (Q9NQU5 whole entry, looked up, the tested form may be a part): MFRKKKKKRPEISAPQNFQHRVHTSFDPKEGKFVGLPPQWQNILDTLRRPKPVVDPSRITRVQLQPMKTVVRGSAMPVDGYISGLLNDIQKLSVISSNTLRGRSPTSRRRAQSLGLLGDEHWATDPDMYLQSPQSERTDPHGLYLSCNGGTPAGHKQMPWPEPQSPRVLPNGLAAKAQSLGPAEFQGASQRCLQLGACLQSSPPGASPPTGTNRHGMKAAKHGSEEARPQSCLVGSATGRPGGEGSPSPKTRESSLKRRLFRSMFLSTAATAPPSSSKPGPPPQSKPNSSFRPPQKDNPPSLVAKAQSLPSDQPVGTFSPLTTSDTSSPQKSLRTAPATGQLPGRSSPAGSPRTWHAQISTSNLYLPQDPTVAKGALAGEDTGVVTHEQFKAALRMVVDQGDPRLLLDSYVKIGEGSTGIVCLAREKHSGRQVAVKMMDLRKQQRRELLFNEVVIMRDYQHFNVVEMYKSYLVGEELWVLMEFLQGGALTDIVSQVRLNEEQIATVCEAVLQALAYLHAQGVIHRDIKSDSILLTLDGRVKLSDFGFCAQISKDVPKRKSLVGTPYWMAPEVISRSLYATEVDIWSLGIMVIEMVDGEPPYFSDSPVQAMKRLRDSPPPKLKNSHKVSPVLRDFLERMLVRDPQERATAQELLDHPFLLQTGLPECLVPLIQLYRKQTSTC

[22] = biological target: Phosphatidylinositol 4-phosphate 3-kinase C2 domain-containing subunit beta (Homo sapiens) (UniProt O00750); assay: Inhibition of human PIK3C2B assessed as percent of control at 2000 nM by KINOMEscan assay relative to control; set-up: scale not given: the % may be the effect or the level left
[23] = test system: Phosphatidylinositol 4,5-bisphosphate 3-kinase catalytic subunit alpha isoform (Homo sapiens), P42336 [E545A]; assay: Inhibition of human PIK3CA E545A mutant assessed as percent of control at 2000 nM by KINOMEscan assay relative to control; set-up: scale not given: the % may be the effect or the level left
[24] = test system: Phosphatidylinositol 4,5-bisphosphate 3-kinase catalytic subunit alpha isoform (Homo sapiens), P42336 [H1047Y]; assay: Inhibition of human PIK3CA H1047Y mutant assessed as percent of control at 2000 nM by KINOMEscan assay relative to control; set-up: scale not given: the % may be the effect or the level left
[25] = test system: Phosphatidylinositol 4,5-bisphosphate 3-kinase catalytic subunit alpha isoform (Homo sapiens), P42336 [Q546K]; assay: Inhibition of human PIK3CA Q546K mutant assessed as percent of control at 2000 nM by KINOMEscan assay relative to control; set-up: scale not given: the % may be the effect or the level left
[26] = biological target: Serine/threonine-protein kinase N1 (Homo sapiens) (UniProt Q16512); assay: Inhibition of human PKN1 assessed as percent of control at 2000 nM by KINOMEscan assay relative to control; set-up: scale not given: the % may be the effect or the level left
[27] = biological target: Ribosomal protein S6 kinase alpha-6 (Homo sapiens) (UniProt Q9UK32); assay: Inhibition of human C-terminal RSK4 kinase domain 2 assessed as percent of control at 2000 nM by KINOMEscan assay relative to control; set-up: scale not given: the % may be the effect or the level left
[28] = biological target: Uncharacterized serine/threonine-protein kinase SBK3 (Homo sapiens) (UniProt P0C264); assay: Inhibition of human SgK110 assessed as percent of control at 2000 nM by KINOMEscan assay relative to control; set-up: scale not given: the % may be the effect or the level left
Uncharacterized serine/threonine-protein kinase SBK3 (Homo sapiens), sequence (P0C264 whole entry): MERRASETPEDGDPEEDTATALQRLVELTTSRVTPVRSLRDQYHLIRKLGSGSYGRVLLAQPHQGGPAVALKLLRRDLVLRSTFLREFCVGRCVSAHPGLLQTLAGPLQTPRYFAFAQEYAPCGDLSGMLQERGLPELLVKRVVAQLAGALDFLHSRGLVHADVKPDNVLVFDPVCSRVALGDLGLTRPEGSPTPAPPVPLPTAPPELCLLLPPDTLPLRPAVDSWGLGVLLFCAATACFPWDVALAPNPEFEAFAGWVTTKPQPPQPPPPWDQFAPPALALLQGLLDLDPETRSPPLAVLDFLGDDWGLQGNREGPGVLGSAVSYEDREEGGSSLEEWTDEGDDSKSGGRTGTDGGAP

[29] = biological target: Serine/threonine-protein kinase 25 (Homo sapiens) (UniProt O00506); assay: Inhibition of human YSK1 assessed as percent of control at 2000 nM by KINOMEscan assay relative to control; set-up: scale not given: the % may be the effect or the level left
Serine/threonine-protein kinase 25 (Homo sapiens), sequence (O00506 whole entry, looked up): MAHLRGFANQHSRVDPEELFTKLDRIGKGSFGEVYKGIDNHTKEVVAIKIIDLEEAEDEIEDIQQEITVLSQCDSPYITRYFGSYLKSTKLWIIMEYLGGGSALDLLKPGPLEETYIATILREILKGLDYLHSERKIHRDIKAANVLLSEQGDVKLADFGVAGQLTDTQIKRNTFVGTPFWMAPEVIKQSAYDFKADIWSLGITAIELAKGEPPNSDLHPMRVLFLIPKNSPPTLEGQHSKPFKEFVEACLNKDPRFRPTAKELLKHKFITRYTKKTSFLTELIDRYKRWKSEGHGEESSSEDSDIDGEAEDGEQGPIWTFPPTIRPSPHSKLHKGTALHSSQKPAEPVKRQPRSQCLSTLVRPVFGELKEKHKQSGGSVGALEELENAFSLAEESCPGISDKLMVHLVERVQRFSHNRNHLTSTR

[30] = test system: Myc-CaP; assay: Inhibition of colony formation in murine castration-resistant Myc-CaP cells at 1 uM in presence of 5 uM enzalutamide by clonogenic assay relative to control; format: functional; details: Mus musculus

## CN(C)C(=O)c1ccc(N2CCCN(c3ccnc4sc(C(N)=O)c(N)c34)CC2)cc1
[1]
  Activity: 95% and 78%
[2]
  Activity: 100%
[3]
  Activity: 92% and 87%
[4]
  Activity: 100% and 95%
[5]
  Activity: 100%
[6]
  Activity: 88%
[7]
  Activity: 100%
[8]
  Activity: 99% and 97%
[9]
  Activity: 100% and 81%
[10]
  Activity: 57% and 82%
[11]
  Activity: 91%
[11]; INHIBITOR
  Activity: 44%
[12]
  Activity: 95%
[13]
  Activity: 100% and 91%
[14]
  Activity: 84% and 90%
[15]
  Activity: 84% and 66%
[16]
  Activity: 98% and 100%
[17]
  Activity: 68%
[17]; INHIBITOR
  Activity: 47%
[18]
  Activity: 100% and 96%
[19]
  Activity: 100%
[20]
  Activity: 100% and 95%
[21]
  Activity: 82% and 99%
[22]
  Activity: 89% and 87%
[23]
  Activity: 100% and 92%
[24]
  Activity: 79% and 100%
[25]
  Activity: 66% and 72%
[26]
  Activity: 96% and 100%
[27]
  Activity: 94% and 79%
[28]
  Activity: 95% and 100%
[29]
  Activity: 76% and 98%
[30]
  inhibition: Active
